According to patent US4258185A, “Pyridazinone compounds” (Yoshitomi Pharmaceutical Industries, Ltd., priority 1980, dated 1981):
Where a name gives a salt, the structure may show the parent alone.

Assays:
[1] = test system: platelet aggregation; experiment: Inhibitory activity on platelet aggregation in rats (ADP-induced, after oral treatment); format: in vivo; settings: Rattus norvegicus, 2 hours after oral treatment, 1.5×10^-5 M adenosine diphosphate, read-out: Percent inhibition of platelet aggregation, Rat
Procedure: (§1) I. Inhibitory activity on platelet aggregation in rats and rabbits
(§2) The citrated blood was obtained 2 hours after the oral treatment with test compounds. The platelet aggregation of platelet rich-plasma was induced by addition of 1.5×10^-5 M adenosine diphosphate (final concentration) and was measured with a Born type six channel aggregometer (G.V.R. Born, J. Physiol. 162, 67 (1962)). […] II. Antihypertensive activity in spontaneously hypertensive rats

[2] = test system: spontaneously hypertensive rats; experiment: Antihypertensive activity in spontaneously hypertensive rats (tail blood pressure); format: in vivo, rat; settings: po, decrease of maximum blood pressure at 5 hours after treatment
Procedure: as §2
A group of 5 spontaneously hypertensive rats (300-350 g) was used. Tail blood pressure was determined by a rat tail manometer (NARCO, PE-300) without anesthesia immediately before and 5 hours after the oral treatment with test compounds. The rat was warmed at 40° C. for 10 minutes. The apparatus detects blood flow pulses in the tail by a pulse sensor. The arterial blood flow was interrupted by applying pressure to the tail through a pneumatic cuff. The blood flow reappeared when the cuff pressure was decreased. The value was approximately equal to the maximum blood pressure.

[3] = test system: platelet aggregation; experiment: Inhibitory activity on platelet aggregation in rabbits (ADP-induced, after oral treatment); format: in vivo; settings: Oryctolagus cuniculus, 2 hours after oral treatment, 1.5×10^-5 M adenosine diphosphate, ± SE, read-out: Percent inhibition of platelet aggregation, Rabbit
Procedure: as §1, §2

SMILES: CCN1C(=O)CCc2cc(C3=NNC(=O)CC3COC(C)=O)ccc21 (stereo not drawn) [Compound I, 6-(5-Acetoxymethyl-3-oxo-2,3,4,5-tetrahydropyridazin-6-yl)-1-ethyl-1,2,3,4-tetrahydroquinolin-2-one]
- inhibition at 3 mg/kg [1]: 46%
- Decrease of tail blood pressure in SHR ([2]; 30 mg/kg): 47 mmHg

SMILES: CC1CC(=O)NN=C1c1ccc2c(c1)C(C)CC(=O)N2C (stereo not drawn) [Compound D, 6-(5-Methyl-3-oxo-2,3,4,5-tetrahydropyridazin-6-yl)-1,4-dimethyl-1,2,3,4-tetrahydroquinolin-2-one]
- inhibition at 0.1 mg/kg ([1]; 0.1 mg/kg): 38%
- inhibition at 0.3 mg/kg ([3]; 0.3 mg/kg): 78 ± 6%
- Decrease of tail blood pressure in SHR ([2]; 0.3 mg/kg): 16 mmHg
- Decrease of tail blood pressure in SHR ([2]; 3 mg/kg): 71 mmHg

SMILES: CCN1C(=O)CCc2cc(C3=NNC(=O)CC3C)ccc21 (stereo not drawn) [Compound J, 6-(5-Methyl-3-oxo-2,3,4,5-tetrahydropyridazin-6-yl)-1-ethyl-1,2,3,4-tetrahydroquinolin-2-one]
- inhibition at 3 mg/kg [1]: 35%

SMILES: CC1CC(=O)N(CCN2CCOCC2)N=C1c1ccc2c(c1)CCC(=O)N2C (stereo not drawn) [Compound K, 6-[5-Methyl-2-(2-morpholinoethyl)-3-oxo-2,3,4,5-tetrahydropyridazin-6-yl]-1-methyl-1,2,3,4-tetrahydroquinolin-2-one hydrochloride hemihydrate]
- inhibition at 3 mg/kg [1]: 51%
- inhibition at 3 mg/kg [3]: 75 ± 8%
- Decrease of tail blood pressure in SHR ([2]; 3 mg/kg): 45 mmHg

SMILES: CCN1C(=O)CCc2cc(C3=NNC(=O)CC3CO)ccc21 (stereo not drawn) [Compound H, 6-(5-Hydroxymethyl-3-oxo-2,3,4,5-tetrahydropyridazin-6-yl)-1-ethyl-1,2,3,4-tetrahydroquinolin-2-one]
- inhibition at 3 mg/kg [1]: 46%

SMILES: CC(=O)OCC1CC(=O)NN=C1c1ccc2c(c1)CCC(=O)N2C (stereo not drawn) [Compound B, 6-(5-Acetoxymethyl-3-oxo-2,3,4,5-tetrahydropyridazin-6-yl)-1-methyl-1,2,3,4-tetrahydroquinolin-2-one]
- inhibition at 3 mg/kg [1]: 51%
- inhibition at 3 mg/kg [3]: 85 ± 6%
- Decrease of tail blood pressure in SHR ([2]; 3 mg/kg): 31 mmHg
- Decrease of tail blood pressure in SHR ([2]; 30 mg/kg): 62 mmHg

SMILES: CN1C(=O)CC(C)(C)c2cc(C3=NNC(=O)CC3CO)ccc21 (stereo not drawn) [Compound E, 6-(5-Hydroxymethyl-3-oxo-2,3,4,5-tetrahydropyridazin-6-yl)-1,4,4-trimethyl-1,2,3,4-tetrahydroquinolin-2-one]
- inhibition at 10 mg/kg ([1]; 10 mg/kg): 43%
- inhibition at 30 mg/kg ([3]; 30 mg/kg): 48 ± 16%

SMILES: CN1C(=O)CCc2cc(C3=NNC(=O)CC3CO)ccc21 (stereo not drawn) [Compound F, 6-(5-Hydroxymethyl-3-oxo-2,3,4,5-tetrahydropyridazin-6-yl)-1-methyl-1,2,3,4-tetrahydroquinolin-2-one]
- inhibition at 3 mg/kg [1]: 62%
- Decrease of tail blood pressure in SHR ([2]; 30 mg/kg): 92 mmHg

SMILES: CC1CC(=O)NN=C1c1ccc2c(c1)C(C)(C)CC(=O)N2C (stereo not drawn) [Compound C, 6-(5-Methyl-3-oxo-2,3,4,5-tetrahydropyridazin-6-yl)-1,4,4-trimethyl-1,2,3,4-tetrahydroquinolin-2-one]
- inhibition at 3 mg/kg [1]: 59%
- inhibition at 3 mg/kg [3]: 93 ± 1%
- Decrease of tail blood pressure in SHR ([2]; 3 mg/kg): 48 mmHg
- Decrease of tail blood pressure in SHR ([2]; 30 mg/kg): 63 mmHg

SMILES: CCC1CC(=O)NN=C1c1ccc2c(c1)CCC(=O)N2CC (stereo not drawn) [Compound G, 6-(5-Ethyl-3-oxo-2,3,4,5-tetrahydropyridazin-6-yl)-1-ethyl-1,2,3,4-tetrahydroquinolin-2-one]
- inhibition at 3 mg/kg [1]: 34%
